Measurements as given in PMC2725396 (Clinical cancer research : an official journal of the …, 2008).
Several values for one entry are separate records, joined by “and”; a condition that tells them apart may be missing. Identical values can stand only once. Like-named read-outs stand apart in the source and are kept apart here.

Tests used:
[1] = molecular target: Pgp (Cricetulus griseus, UniProt P21448); test: Topotecan accumulation by flow microfluorimetry in CH^RC5 cells; type: cell-based, Chinese hamster; details: 1,000 nmol/L lapatinib, n = 3
Sequence of Pgp (Cricetulus griseus, UniProt P21448) (P21448 whole entry): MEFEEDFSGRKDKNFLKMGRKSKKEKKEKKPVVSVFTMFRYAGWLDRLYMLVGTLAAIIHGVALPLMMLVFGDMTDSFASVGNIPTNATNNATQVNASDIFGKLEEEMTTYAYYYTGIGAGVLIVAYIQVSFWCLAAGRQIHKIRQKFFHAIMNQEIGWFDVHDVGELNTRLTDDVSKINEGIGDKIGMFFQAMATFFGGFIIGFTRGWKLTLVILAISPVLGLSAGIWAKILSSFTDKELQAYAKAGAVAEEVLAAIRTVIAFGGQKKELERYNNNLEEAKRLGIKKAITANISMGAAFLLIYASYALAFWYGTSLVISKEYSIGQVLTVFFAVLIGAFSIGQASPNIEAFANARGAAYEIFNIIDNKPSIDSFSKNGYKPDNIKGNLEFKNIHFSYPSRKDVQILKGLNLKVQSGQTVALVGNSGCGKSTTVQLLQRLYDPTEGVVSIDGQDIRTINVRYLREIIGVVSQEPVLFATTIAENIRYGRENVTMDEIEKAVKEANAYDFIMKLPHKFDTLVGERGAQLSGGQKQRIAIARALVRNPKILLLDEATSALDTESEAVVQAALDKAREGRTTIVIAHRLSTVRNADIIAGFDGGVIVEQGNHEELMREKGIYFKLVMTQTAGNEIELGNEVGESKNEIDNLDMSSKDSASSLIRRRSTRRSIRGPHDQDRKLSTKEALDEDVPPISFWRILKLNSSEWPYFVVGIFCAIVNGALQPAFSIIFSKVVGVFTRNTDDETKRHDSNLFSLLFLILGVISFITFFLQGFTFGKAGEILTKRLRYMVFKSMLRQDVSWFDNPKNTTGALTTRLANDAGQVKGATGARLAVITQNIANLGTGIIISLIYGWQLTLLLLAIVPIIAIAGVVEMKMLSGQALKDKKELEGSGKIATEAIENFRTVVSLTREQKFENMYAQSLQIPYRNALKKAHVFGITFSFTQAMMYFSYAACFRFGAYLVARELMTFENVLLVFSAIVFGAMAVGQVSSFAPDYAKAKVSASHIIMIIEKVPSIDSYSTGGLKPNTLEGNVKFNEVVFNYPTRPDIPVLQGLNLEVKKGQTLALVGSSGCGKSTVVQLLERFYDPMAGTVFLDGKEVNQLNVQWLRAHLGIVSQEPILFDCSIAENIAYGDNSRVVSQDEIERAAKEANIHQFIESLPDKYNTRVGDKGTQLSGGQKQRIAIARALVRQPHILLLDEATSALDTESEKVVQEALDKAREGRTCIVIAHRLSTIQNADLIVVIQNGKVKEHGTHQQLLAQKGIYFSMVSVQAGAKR

[2] = test system: AuxB1 cells; test: Topotecan accumulation by flow microfluorimetry in AuxB1 cells; type: cell-based, Chinese hamster; details: AuxB1 cells (lower Pgp), compared with CH^RC5
[3] = molecular target: T1, BCRP (Homo sapiens, UniProt Q9UNQ0); test: Topotecan accumulation by flow microfluorimetry in MDA-MB-231/BCRP cells; type: cell-based
T1 sequence (Q9UNQ0 1-655): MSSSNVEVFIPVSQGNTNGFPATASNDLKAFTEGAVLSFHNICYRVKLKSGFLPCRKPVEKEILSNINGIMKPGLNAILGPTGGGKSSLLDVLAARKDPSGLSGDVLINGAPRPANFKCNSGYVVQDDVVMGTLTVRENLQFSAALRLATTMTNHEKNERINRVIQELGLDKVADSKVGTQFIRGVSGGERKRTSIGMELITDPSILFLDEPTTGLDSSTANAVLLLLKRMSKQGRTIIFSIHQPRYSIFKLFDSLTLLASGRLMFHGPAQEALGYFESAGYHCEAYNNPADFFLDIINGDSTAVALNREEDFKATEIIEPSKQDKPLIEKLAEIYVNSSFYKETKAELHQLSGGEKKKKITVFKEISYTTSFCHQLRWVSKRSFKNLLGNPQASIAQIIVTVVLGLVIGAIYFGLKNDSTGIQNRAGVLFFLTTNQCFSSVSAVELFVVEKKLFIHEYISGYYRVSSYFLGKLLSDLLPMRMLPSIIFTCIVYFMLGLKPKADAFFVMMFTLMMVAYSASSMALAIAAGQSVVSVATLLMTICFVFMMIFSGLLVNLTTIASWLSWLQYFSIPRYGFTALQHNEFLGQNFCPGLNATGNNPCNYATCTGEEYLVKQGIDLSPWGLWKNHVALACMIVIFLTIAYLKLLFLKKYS

[4] = test system: MDA-MB-231/empty vector cells; test: Clonogenic assay with topotecan plus lapatinib in MDA-MB-231/empty vector cells; type: cell-based; details: MDA-MB-231 cells transfected with empty vector, 1 µmol/L lapatinib, 24 h
[5] = single agent, cited from earlier work
[6] = Phase I trial: plasma pharmacokinetics of topotecan and lapatinib; details: for AUC(0-t) / Cmax / Topotecan CLp: n = 9, geometric mean and 95% CI; for Cmax: Topotecan Cmax; for half-life / Topotecan CLNRF / Topotecan Vss: geometric mean and 95% CI; for Topotecan CLNRF: CLp minus CLCR
[7] = test system: MDA-MB-231/empty vector cells; test: Topotecan accumulation by flow microfluorimetry in MDA-MB-231/empty vector cells; type: cell-based; details: MDA-MB-231 cells transfected with empty vector
[8] = test system: BT474 human breast carcinoma xenografts; test: BT474 xenograft tumor growth inhibition; type: in vivo, CB-17 SCID mice
[9] = test system: patients with advanced solid tumors; test: Phase I trial: MTD, DLTs and adverse events; type: in vivo, human
[10] = test system: Pgp; details: cited from earlier work
[11] = type: in vivo, human; details: fit of CLNRF ratio versus lapatinib steady-state Cmin, ±35%
[12] = molecular target: T1, BCRP; details: read-out: in vitro Ki for inhibition of BCRP; cited from earlier work
[13] = cited from earlier work
[14] = geometric least squares mean ratio and 90% CI

## CS(=O)(=O)CCNCc1ccc(-c2ccc3ncnc(Nc4ccc(OCc5cccc(F)c5)c(Cl)c4)c3c2)o1 [lapatinib]
[1]
  intracellular topotecan, % of steady-state accumulation in the absence of lapatinib: 220 ± 20%
[2]
  effect on intracellular topotecan: more modest
[3]
  EC50: 250 nM
[4]
  effect on topotecan-induced inhibition of colony formation: little effect
[5]; diarrhea and rash dose limiting
  dose up to which lapatinib was well tolerated in phase I trials: up to 1,800 mg/d
[6]; human, plasma, oral, Lapatinib AUC0–24 h, lapatinib + topotecan (day 8)
  AUC(0-t): 31700 ng·h/mL
[6]; human, plasma, oral, Lapatinib AUC0–24 h, lapatinib alone (day 7)
  AUC(0-t): 23300 ng·h/mL
[6]; human, plasma, oral, Lapatinib Tmax, lapatinib alone (day 7), median and range
  Tmax: 3 h
[7]
  effect on intracellular topotecan: little effect
[8]; lapatinib 30 mg/kg oral twice daily 21 d, study 2, day 70
  inhibition of BT474 tumor growth: 26%
[8]; lapatinib 60 mg/kg oral twice daily 21 d, study 1, day 56
  inhibition of BT474 tumor growth: 79%
[8]; lapatinib 100 mg/kg oral twice daily 21 d, study 1, day 56
  inhibition of BT474 tumor growth: 77%
[8]; lapatinib 100 mg/kg oral twice daily 21 d, study 2, day 70
  inhibition of BT474 tumor growth: 82%
[9]; for 28 days of a 28-day cycle
  MTD and recommended phase II dose of lapatinib in the combination: 1,250 mg/d
[10]
  in vitro Ki for inhibition of Pgp: 2,300 ng/mL
[10]; read-out: in vitro Ki for inhibition of Pgp
  Ki: 3900 nM
[11]
  Ki (lapatinib concentration producing 50% inhibition of topotecan CLNRF): 2,349 ng/mL
[12]
  Ki: 24.1 nM and 25 nM
[13]; 30 mg/kg orally twice daily
  Lapatinib AUC in mice: 5000 ng·h/mL
  Lapatinib Cmax in mice: 1000 ng/mL
[13]; 60 mg/kg orally twice daily
  Lapatinib AUC in mice: 29000 ng·h/mL
  Lapatinib Cmax in mice: 4000 ng/mL
[13]; 100 mg/kg orally twice daily
  Lapatinib AUC in mice: 94000 ng·h/mL
  Lapatinib Cmax in mice: 9000 ng/mL

## CC[C@@]1(O)C(=O)OCc2c1cc1n(c2=O)Cc2cc3c(CN(C)C)c(O)ccc3nc2-1 [topotecan]
[5]; × 3
  MTD for topotecan alone: 4 mg/m^2/wk
[5]
  topotecan doses at which neutropenia is the principal toxicity: above 4 mg/m^2/wk
[6]; (7–29%)
  increase of topotecan AUC0–24 h in the presence of lapatinib: 18%
[6]; (12–32%)
  decrease of topotecan CLNRF when administered with lapatinib: 22%
[6]; day 8 versus day 1
  decrease in topotecan CLp when administered with lapatinib: 16%
[6]; [14]
  Topotecan AUC0–24 h, day 8:day 1 ratio: 1.18 (1.07–1.29)
  Topotecan CLNRF, day 8:day 1 ratio: 0.78 (0.68–0.88)
  Topotecan CLp, day 8:day 1 ratio: 0.84 (0.76–0.92)
  Topotecan Cmax, day 8:day 1 ratio: 0.79 (0.66–0.92)
  Topotecan Vss, day 8:day 1 ratio: 0.99 (0.90–1.08)
  Topotecan t1/2, day 8:day 1 ratio: 1.01 (0.96–1.06)
[6]; human, plasma, intravenous, Topotecan AUC0–24 h, lapatinib + topotecan (day 8)
  AUC(0-t): 510 ng·h/mL
[6]; human, plasma, intravenous, Topotecan AUC0–24 h, topotecan alone (day 1)
  AUC(0-t): 432 ng·h/mL
[6]; human, plasma, intravenous, lapatinib + topotecan (day 8)
  Cmax: 128 ng/mL
[6]; human, plasma, intravenous, topotecan alone (day 1)
  Cmax: 162 ng/mL
[6]; human, plasma, intravenous, Topotecan t1/2, lapatinib + topotecan (day 8)
  half-life: 4.35 h
[6]; human, plasma, intravenous, Topotecan t1/2, topotecan alone (day 1)
  half-life: 4.3 h
[6]; lapatinib + topotecan (day 8)
  Topotecan CLNRF: 4.11 (2.72–5.50) L/h/m^2
  Topotecan Vss: 30.1(23.9–36.3) L/m^2
  Topotecan CLp: 6.14 L/h/m^2
[6]; lapatinib + topotecan (day 8), listed as Topotecan
  Topotecan CLp: 6.14 (4.27–8.01) L/h/m^2
[6]; topotecan administered alone
  topotecan CLNRF as % of CLp: 72%
[6]; topotecan alone (day 1)
  Topotecan CLNRF: 5.25 (3.99–6.51) L/h/m^2
  Topotecan Vss: 30.5 (26.5–34.5) L/m^2
  Topotecan CLp: 7.28 L/h/m^2
[6]; topotecan alone (day 1), listed as Topotecan
  Topotecan CLp: 7.28 (5.35–8.91) L/h/m^2
[6]; topotecan and lapatinib administered together
  topotecan CLNRF as % of CLp: 66%
[8]; topotecan alone 6 mg/kg i.p. every 4 d × 3, study 2
  inhibition of BT474 tumor growth: 53%
[8]; topotecan alone 10 mg/kg i.p. every 4 d × 3, study 1
  inhibition of BT474 tumor growth: 66%
[8]; topotecan alone 10 mg/kg i.p. every 4 d × 3, study 2
  inhibition of BT474 tumor growth: 65%
[9]; i.v. on days 1, 8, 15 of a 28-day cycle
  MTD and recommended phase II dose of topotecan in the combination: 3.2 mg/m^2
